Structures are written as SMILES.

The test deals with T1, HIV-integrase (Human immunodeficiency virus type 1 group M subtype B, UniProt P04585).
T1 construct: Recombinant integrase (0.26 ng) was incubated with the beads
Put plainly: in-vitro activity against HIV-integrase (HIV Integrase Inhibition, SPA bead assay). The test is classed as biochemical. Particulars: Table 1; recombinant integrase, activity class. The method, then:
To evaluate in-vitro activity against HIV-integrase, 5 pmole of biotin labeled substrate DNA was bound to 100 μg of Streptavidin coated PVT SPA beads (Amersham Pharmacia Biotech). Recombinant integrase (0.26 ng) was incubated with the beads for 90 min at 37° C. Unbound enzyme was removed by washing the complex followed by addition of inhibitors and […] of P33 labeled target DNA. The reaction was stopped by adding EDTA to a final concentration of 10 mM. Samples were counted in TopCountNXT (Packard) and the CPM was used as a measure of integration. The reaction condition was as described in Engelman, A. and Craigie, R. J. Vitrol. 1996, 69, 5908. The sequences of substrate and target DNA were described in Nucleic Acid Research 1994, 22, 1121.
What is called IC50 is the concentration that gives 50% inhibition. For the compound `O=C(NCc1ccc(F)cc1)c1nc2n(c(=O)c1O)CCCC21CCCC1` [Example 1, N-[(4-fluorophenyl)methyl]-7′,8′-dihydro-3′-hydroxy-4′-oxo-spiro[cyclopentane-1,9′(6′H)-[4H]pyrido[1,2-a]pyrimidine]-2′-carboxamide], the half-inhibitory concentration (IC50) is 1 to 10 nM.
As to `Cc1cc(CNC(=O)c2nc3n(c(=O)c2O)CCCC32CCCC2)ccc1F` [Example 2, N-[(4-fluoro-3-methylphenyl)methyl]-7′,8′-dihydro-3′-hydroxy-4′-oxo-spiro[cyclopentane-1,9′(6′H)-[4H]pyrido[1,2-a]pyrimidine]-2′-carboxamide], the concentration for half-maximal inhibition (IC50) fell in the range of 1 to 10 nM.
Then `O=C(NCc1ccccc1-n1cncn1)c1nc2n(c(=O)c1O)CCCC21CCCC1` [Example 3, N-[[2-(1H-1,2,4-triazol-1-yl)phenyl]methyl]-7′,8′-dihydro-3′-hydroxy-4′-oxo-spiro[cyclopentane-1,9′(6′H)-[4H]pyrido[1,2-α]pyrimidine]-2′-carboxamide], with 1 to 10 nM; and `O=C(NCc1ccc(F)cc1-n1cncn1)c1nc2n(c(=O)c1O)CCCC21CCCC1` [Example 4, N-[[4-fluoro-2-(1H-1,2,4-triazol-1-yl)phenyl]methyl]-7′,8′-dihydro-3′-hydroxy-4′-oxo-spiro[cyclopentane-1,9′(6′H)-[4H]pyrido[1,2-α]pyrimidine]-2′-carboxamide], with 1 to 10 nM; and `O=C(NCc1cc(F)ccc1-n1cncn1)c1nc2n(c(=O)c1O)CCCC21CCCC1` [Example 5, N-[[5-fluoro-2-(1H-1,2,4-triazol-1-yl)phenyl]methyl]-7′,8′-dihydro-3′-hydroxy-4′-oxo-spiro[cyclopentane-1,9′(6′H)-[4H]pyrido[1,2-α]pyrimidine]-2′-carboxamide], with 1 to 10 nM.
`O=C(NCc1ccc(F)cc1-n1nccn1)c1nc2n(c(=O)c1O)CCCC21CCCC1` [Example 6, N-[[4-fluoro-2-(2H-1,2,3-triazol-2-yl)phenyl]methyl]-7′,8′-dihydro-3′-hydroxy-4′-oxo-spiro[cyclopentane-1,9′(6′H)-[4H]pyrido[1,2-α]pyrimidine]-2′-carboxamide]: the half-maximal inhibitory concentration (IC50) was 1 to 10 nM.
Then `O=C(NCc1ccc(F)cc1-n1ccnc1)c1nc2n(c(=O)c1O)CCCC21CCCC1` [Example 7, N-[[4-fluoro-2-(1H-imidazol-1-yl)phenyl]methyl]-7′,8′-dihydro-3′-hydroxy-4′-oxo-spiro[cyclopentane-1,9′(6′H)-[4H]pyrido[1,2-α]pyrimidine]-2′-carboxamide], with 1 to 10 nM; and `O=C(NCc1ccccc1N1CCCCS1(=O)=O)c1nc2n(c(=O)c1O)CCCC21CCCC1` [Example 8, N-[[2-(tetrahydro-1,1-dioxido-2H-1,2-thiazin-2-yl)phenyl]methyl]-7′,8′-dihydro-3′-hydroxy-4′-oxo-spiro[cyclopentane-1,9′(6′H)-[4H]pyrido[1,2-α]pyrimidine]-2′-carboxamide], with 10 to 100 nM.
Turning to `O=C(NCc1ccc(F)cc1N1CCCCS1(=O)=O)c1nc2n(c(=O)c1O)CCCC21CCCC1` [Example 9, N-[[4-fluoro-2-(tetrahydro-1,1-dioxido-2H-1,2-thiazin-2-yl)phenyl]methyl]-7′,8′-dihydro-3′-hydroxy-4′-oxo-spiro[cyclopentane-1,9′(6′H)-[4H]pyrido[1,2-α]pyrimidine]-2′-carboxamide], the IC50 was 1 to 10 nM.
For `CN(C)S(=O)(=O)c1cc(F)ccc1CNC(=O)c1nc2n(c(=O)c1O)CCCC21CCCC1` [Example 10, N-[[2-[(dimethylamino)sulfonyl]-4-fluorophenyl]methyl]-7′,8′-dihydro-3′-hydroxy-4′-oxo-spiro[cyclopentane-1,9′(6′H)-[4H]pyrido[1,2-α]pyrimidine]-2′-carboxamide] the value was 1 to 10 nM; for `CS(=O)(=O)c1cc(F)ccc1CNC(=O)c1nc2n(c(=O)c1O)CCCC21CCCC1` [Example 11, N-[[4-fluoro-2-(methylsulfonyl)phenyl]methyl]-7′,8′-dihydro-3′-hydroxy-4′-oxo-spiro[cyclopentane-1,9′(6′H)-[4H]pyrido[1,2-α]pyrimidine]-2′-carboxamide], 1 to 10 nM.
Turning to `O=C(NCc1cccc(F)c1-n1cncn1)c1nc2n(c(=O)c1O)CCCC21CCCC1` [Example 12, N-[[3-fluoro-2-(1H-1,2,4-triazol-1-yl)phenyl]methyl]-7′,8′-dihydro-3′-hydroxy-4′-oxo-spiro[cyclopentane-1,9′(6′H)-[4H]pyrido[1,2-α]pyrimidine]-2′-carboxamide], the 50% inhibitory concentration (IC50) is 1 to 10 nM.
Regarding `O=C(NCc1ccc(F)cc1)c1nc2n(c(=O)c1O)CCCC21CCOCC1` [Example 13, N-[(4-fluorophenyl)methyl]-2,3,5,6,7′,8′-hexahydro-3′-hydroxy-4′-oxo-spiro[4H-pyran-4,9′(6′H)-[4H]pyrido[1,2-a]pyrimidine]-2′-carboxamide], the half-inhibitory concentration (IC50) lay in the range of 1 to 10 nM.
Then `O=C(NCc1ccccc1)c1nc2n(c(=O)c1O)CCOC21CCCC1` [Example 14, N-(phenylmethyl)-6′,7′-dihydro-3′-hydroxy-4′-oxo-spiro[cyclopentane-1,9′(4′H)-pyrimido[2,1-c][1,4]oxazine]-2′-carboxamide], with 1 to 10 nM; and `O=C(NCc1ccc(F)cc1)c1nc2n(c(=O)c1O)CCOC21CCCC1` [Example 15, N-[(4-fluorophenyl)methyl]-6′,7′-dihydro-3′-hydroxy-4′-oxo-spiro[cyclopentane-1,9′(4′H)-pyrimido[2,1-c][1,4]oxazine]-2′-carboxamide], with 1 to 10 nM.
For `Cc1cc(CNC(=O)c2nc3n(c(=O)c2O)CCOC32CCCC2)ccc1F` [Example 16, N-[(4-fluoro-3-methylphenyl)methyl]-6′,7′-dihydro-3′-hydroxy-4′-oxo-spiro[cyclopentane-1,9′(4′H)-pyrimido[2,1-c][1,4]oxazine]-2′-carboxamide] the value was 1 to 10 nM; for `O=C(NCc1ccc(F)cc1-n1cncn1)c1nc2n(c(=O)c1O)CCOC21CCCC1` [Example 17, N-[[4-fluoro-2-(1 H-1,2,4-triazol-1-yl)phenyl]methyl]-6′,7′-dihydro-3′-hydroxy-4′-oxo-spiro[cyclopentane-1,9′(4′H)-pyrimido[2,1-c][1,4]oxazine]-2′-carboxamide], 1 to 10 nM.
For `CSc1cc(F)ccc1CNC(=O)c1nc2n(c(=O)c1O)CCOC21CCCC1` [Example 18, N-[[4-fluoro-2-(methylthio)phenyl]methyl]-6′,7′-dihydro-3′-hydroxy-4′-oxo-spiro[cyclopentane-1,9′(4′H)-pyrimido[2,1-c][1,4]oxazine]-2′-carboxamide] the value was 1 to 10 nM; for `Cc1ccc(CNC(=O)c2nc3n(c(=O)c2O)CCOC32CCCC2)cc1` [Example 19, 6′,7′-dihydro-3′-hydroxy-N-[(4-methylphenyl)methyl]-4′-oxo-spiro[cyclopentane-1,9′(4′H)-pyrimido[2,1-c][1,4]oxazine]-2′-carboxamide], 10 to 100 nM.
For `O=C(NCc1ccc(Cl)cc1)c1nc2n(c(=O)c1O)CCOC21CCCC1` [Example 20, N-[(4-chlorophenyl)methyl]-6′,7′-dihydro-3′-hydroxy-4′-oxo-spiro[cyclopentane-1,9′(4′H)-pyrimido[2,1-c][1,4]oxazine]-2′-carboxamide], the IC50 lay in the range of 1 to 10 nM.
Then `O=C(NCc1ccc(Cl)c(Cl)c1)c1nc2n(c(=O)c1O)CCOC21CCCC1` [Example 21, N-[(3,4-dichlorophenyl)methyl]-6′,7′-dihydro-3′-hydroxy-4′-oxo-spiro[cyclopentane-1,9′(4′H)-pyrimido[2,1-c][1,4]oxazine]-2′-carboxamide], with 1 to 10 nM; and `Cc1ccc(CNC(=O)c2nc3n(c(=O)c2O)CCOC32CCCC2)cc1C` [Example 22, N-[(3,4-dimethylphenyl)methyl]-6′,7′-dihydro-3′-hydroxy-4′-oxo-spiro[cyclopentane-1,9′(4′H)-pyrimido[2,1-c][1,4]oxazine]-2′-carboxamide], with 10 to 100 nM; and `COc1ccc(CNC(=O)c2nc3n(c(=O)c2O)CCOC32CCCC2)cc1` [Example 23, 6′,7′-dihydro-3′-hydroxy-N-[(4-methoxyphenyl)methyl]-4′-oxo-spiro[cyclopentane-1,9′(4′H)-pyrimido[2,1-c][1,4]oxazine]-2′-carboxamide], with 10 to 100 nM.
For `O=C(NCc1ccccc1F)c1nc2n(c(=O)c1O)CCOC21CCCC1` [Example 24, N-[(2-fluorophenyl)methyl]-6′,7′-dihydro-3′-hydroxy-4′-oxo-spiro[cyclopentane-1,9′(4′H)-pyrimido[2,1-c][1,4]oxazine]-2′-carboxamide] the value was 10 to 100 nM; for `COc1ccc(CNC(=O)c2nc3n(c(=O)c2O)CCOC32CCCC2)c(OC)c1` [Example 25, N-[(2,4-dimethoxyphenyl)methyl]-6′,7′-dihydro-3′-hydroxy-4′-oxo-spiro[cyclopentane-1,9′(4′H)-pyrimido[2,1-c][1,4]oxazine]-2′-carboxamide], 10 to 100 nM.
`O=C(NCc1cccc(F)c1)c1nc2n(c(=O)c1O)CCOC21CCCC1` [Example 26, N-[(3-fluorophenyl)methyl]-6′,7′-dihydro-3 ′-hydroxy-4′-oxo-spiro[cyclopentane-1,9′(4′H)-pyrimido[2,1-c][1,4]oxazine]-2′-carboxamide]: the half-maximal inhibitory concentration (IC50) is 10 to 100 nM.
For `Cc1ccc(CNC(=O)c2nc3n(c(=O)c2O)CCOC32CCCC2)cc1F` [Example 27, N-[(3-fluoro-4-methylphenyl)methyl]-6′,7′-dihydro-3′-hydroxy-4′-oxo-spiro[cyclopentane-1,9′(4′H)-pyrimido[2,1-c][1,4]oxazine]-2′-carboxamide] the value was 1 to 10 nM.
